Measurements taken from publication PMC9653453, “Development of truncated elastin-like peptide analogues with improved temperature-response and self-assembling properties” (Scientific Reports, 2022).
“And” between values parts separate entries of the source, which are not always exact repeats. Equal entries are not always repeated. Ends that are not written are not given here.

Key:
[1] = Turbidity measurement (phase transition temperature Tt, coacervation) in phosphate buffer pH 7.4; assay type: physicochemical; details: for Coacervation on heating (in words): peptide 50 mg/mL (69.5 mM); for Tt, phase transition temperature: heating 0.5 ℃/min from 5 ℃, mean ± SE, at least three measurements
Procedure: Turbidity measurements were performed in accordance with previous reports. The temperature-dependent self-assembling properties of the ELP analogues were evaluated using a JASCO V-660 spectral photometer (JASCO Co., Tokyo, Japan). Peptide sample solutions of different concentrations (2.0, 5.0, 10, 20, 30, or 50 mg/mL) were prepared by dissolving each peptide (except for AADAAC-(FPGV)n) in phosphate buffer (27.4 mM Na2HPO4, 17.8 mM NaH2PO4, pH 7.4). AADAAC-(FPGV)4 was dissolved in Tris–HCl buffer solution (50.0 mM Tris, at pH 8.4 or 50.0 mM Tris, 154 mM NaCl, at pH 8.4) to prepare sample solutions of a concentration of 0.5 or 10 mg/mL in the absence or presence of the equimolar amount of CdCl2. Turbidity was measured at 400 nm with increasing or decreasing temperature at a rate of 0.5 ℃/min from 5 ℃. The concentration of each sample solution was measured at least three times. The self-assembling property was described by the phase transition temperature (Tt), which is the temperature at which the turbidity of the solution reaches half the maximum value.

[2] = Dynamic light scattering (DLS) size distribution of coacervates; assay type: physicochemical; details: phosphate buffer pH 7.4; for Temperature-dependent particle size by DLS (in words): 10 to 50 ℃ in 10 ℃ steps, peptide concentrations as in Fig. 3 (2.0-50 mg/mL); for Hydrodynamic diameter (DLS): peptide 10 mg/mL, filtered 0.2 µm
Procedure: The distribution of the particle size in the truncated ELP analogue solution was analyzed via DLS using Zetasizernano ZS (Malvern Instruments Ltd., Worcestershire, U.K.) in a measurement cell ZEN0112 (Malvern Instruments Ltd.)[33]. Peptide samples of different concentrations (2.0, 10, 20, 30, or 50 mg/mL) were prepared by dissolving each peptide in phosphate buffer (27.4 mM Na2HPO4, 17.8 mM NaH2PO4, pH 7.4) and filtered using the Millex-LG filter (pore size 0.2 µm, Merck Millipore) before measurement. DLS analysis was performed by increasing the temperature at 10 ℃ intervals from 10 to 50 ℃. Measurement duration was selected automatically. Parameter dataset “protein” (dataset: refractive index, 1.450; absorption, 0.001) was used as the material parameter, and parameter dataset “water” (dataset: refractive index, 1.330; viscosity, 0.8872) was chosen as the dispersant parameter. Attenuation was selected automatically. Each concentration was measured at least three times.

[3] = RP-UPLC retention time, used as measure of peptide hydrophobicity; assay type: physicochemical; details: RP-UPLC-MS; chromatographic
Procedure: Peptide synthesis was carried out using the conventional solid-phase peptide synthesis procedure (see supplementary information). The synthesized peptides were purified using RP-HPLC. The purity and molecular weight of each peptide were confirmed using RP-UPLC-MS (Table S1 and Fig. S1). […]
Retention times of each peptide were determined by RP-UPLC-MS.

[4] = Optical microscopy of peptide aggregates with image analysis of particle size; assay type: physicochemical; details: peptide 10 mg/mL, phosphate buffer pH 7.4
Procedure: The morphology of the coacervates of (FPGVG)4, (FPGV)4, and (FPG)4 was observed using optical microscopy. Light field observation was performed using a Leica DM IL LED microscope (Leica Microsystems CMS, Wetzlar, Germany) equipped with HI PLAN 40 × (Leica Microsystems CMS) and HC PLAN 10 × (Leica Microsystems CMS) objectives. Each peptide was dissolved in phosphate buffer (27.4 mM Na2HPO4, 17.8 mM NaH2PO4, at pH 7.4) to a concentration of 10 mg/mL and applied on a glass slide. Sample imaging was performed below and above the Tt of each peptide using a Thermo Plate TP-CHSQM (Tokai Hit Co., Ltd., Shizuoka, Japan). Sample images above Tt were taken 3 min after the sample reached the target temperature. The details of the image analysis is shown in the Supplementary Information file.
Size distribution of coacervates of ELP analogues formed above the Tt was analyzed using optical microscopy images of each peptide. Image analysis was performed using Image J/Fiji (NIH, USA), an open-source image analysis software.^2 Spatial calibration was carried out using […] in original images. The images of peptide coacervates were converted to a binary image via the menu command Image > Type > 8-bit. Using "analyze particle" command, the Feret diameters of the particles within the image were measured.

[5] = Turbidity measurement (phase transition temperature Tt, coacervation) in phosphate buffer pH 7.4; assay type: physicochemical; details: peptide 1.0 mg/mL, turbidity at 400 nm, heating 0.5 ℃/min from 5 ℃, half-maximal turbidity, mean ± SE, at least three measurements
[6] = Colorimetric (xylenol orange) determination of Cd^2+ removal by peptide coacervation; details: peptide 1.0 mg/mL, mean ± SE
Procedure: Colorimetric analyses of cadmium ions (Cd^2+) were carried out to evaluate the number of metal ions absorbed into the coacervation phase of the peptides by using a spectral photometer (JASCO V-660)[45]. […] The peptide solutions were incubated at 4 ℃ for 3, 6, or 12 h and then at 60 ℃ for 1.5 h to separate into the lower coacervation phase from the upper equilibrium solution phase. After incubation, the peptide solution was immediately centrifuged at room temperature for 2 min (6,200 rpm) to remove aggregates. An aliquot of 333 µL of supernatant of the equilibrium solution phase was added to 600 µL of acetate buffer solution (pH5.4) including 67 μM of XO and incubated for 10 min. Subsequently, the concentrations of Cd^2+ or Zn^2+ were determined by measuring the absorbance at 575 nm or 550 nm, respectively, which corresponds to the absorbance of the metal-XO complex. The amount of metal ions absorbed in the peptide solution was determined by the calibration line, which was prepared in the same manner by using a series of standard CdCl2 or ZnCl2 aqueous solutions of known concentrations. The homogeneity of variances between the concentration of each metal ion in the supernatant and the control solution was confirmed using the F test. The statistical significance of the difference between the concentration of each metal ion in the supernatant and the control solution was determined using the Student's t-test. Results were considered statistically significant at P values of ≤ 0.01.

[7] = phosphate buffer pH 7.4, turbidity at 400 nm
[8] = peptide 5.0 mg/mL, phosphate buffer pH 7.4, turbidity at 400 nm, half-maximal turbidity
[9] = peptide 10 mg/mL, phosphate buffer (27.4 mM Na2HPO4, 17.8 mM NaH2PO4, pH 7.4), turbidity at 400 nm, Tt = temperature at half-maximal turbidity
[10] = peptide 2.0 mg/mL, phosphate buffer pH 7.4, turbidity at 400 nm, half-maximal turbidity

Substance | Temperature-dependent particle size by DLS (in words) [2] | UPLC retention time (measure of hydrophobicity) [3] [min] | Tt, phase transition temperature [1, 8] [°C] | Tt, phase transition temperature [1, 9] [°C] | other results
FPGFPGFPGFPG-NH2 [(FPG)4, H-(FPG)4-NH2] | formed irreversible aggregates in the aqueous solution at 10 °C | 1.835 |  |  | Aggregation behaviour in aqueous solution (in words) ([1]; peptide 10 mg/mL, aqueous solution / phosphate buffer pH 7.4, with elapsed time without a temperature rise): formed irreversible aggregates; Morphology of aggregates (optical microscopy, in words) [4]: filamentous aggregates
FPGFPGV-NH2 [(FPG)(FPGV), H-(FPG)(FPGV)-NH2] | did not show micrometer-sized particles | 0.760 |  |  | Coacervation on heating (in words) [1, 7]: did not show coacervation
FPGVFPG-NH2 [(FPGV)(FPG)] | did not show micrometer-sized particles | 0.466 |  |  | Coacervation on heating (in words) [1, 7]: did not show coacervation
FPGVFPGV-NH2 [(FPGV)2] | did not show micrometer-sized particles | 0.583 |  |  | Turbidity change / coacervation on heating (in words) ([1]; peptide 30 mg/mL (36.7 mM), phosphate buffer pH 7.4, turbidity at 400 nm): did not exhibit turbidity change
FPGVFPGVFPGV-NH2 [(FPGV)3] | formed sub-micron particles below Tt, which grew into micrometer-sized particles above Tt | 1.739 | 71.6 ± 0.8 | 45.2 ± 0.9 | 
FPGVFPGVFPGVFPGV-NH2 [(FPGV)4] | rapidly formed micrometer-sized particles at 20 °C | 2.431 | 23.4 ± 0.1 | 17.0 ± 0.2 | Tt, phase transition temperature [5]: 51.3 ± 0.1 °C; Concentration of metal ion in the supernatant ([6]; Cd^2+ (0.236 mM CdCl2), incubation 12 h at 4 ℃ then 60 ℃ 1.5 h, Tris-HCl (50.0 mM Tris, 599 mM NaCl, pH 8.0), at least three measurements): 19.0 ± 0.97 ppm; Removal efficiency ([6]; Cd^2+, incubation 12 h, versus control without peptide): 27.2% and 27.2 ± 0.04%; Tt, phase transition temperature [1, 10]: 36.7 ± 0.3 °C; Morphology of aggregates (optical microscopy, in words) [4]: spherical aggregates; Particle size of coacervates (optical microscopy image analysis, Feret diameter) ([4]; above Tt ((FPGVG)4 40 °C, (FPGV)4 25 °C), ImageJ/Fiji): 2–4 µm
FPGVGFPGVGFPGVGFPGVGFPGVG-NH2 [(FPGVG)5, reference compound] |  | 2.691 | 25.6 ± 1.2 | 20.5 ± 0.1 | Tt, phase transition temperature [5]: 56.6 ± 1.3 °C; Tt, phase transition temperature [1, 10]: 39.0 ± 0.2 °C; Hydrodynamic diameter (DLS) ([2]; at 10 ℃, Zetasizer cumulant fit): approximately 3 nm; Hydrodynamic diameter (DLS) ([2]; at temperatures above 20 ℃): 3–5 µm
VFPGVFPGVFPGVFPG-NH2 [(VFPG)4, H-(VFPG)n-NH2 (n = 4)] |  | 2.493 |  | 45.3 ± 0.6 | 
